{"source": "patent US7879870B2", "about": "“Treatment of inflammatory and ulcerative diseases of the bowel with opioid antagonists” (priority 2006, dated 2011)", "key": {"human subjects": {"test_system": "human subjects", "experiment": "Double-blinded placebo-controlled Phase II clinical trial, adverse events", "format": "in vivo", "details": "as of the date of application"}, "[1]": {"test_system": "patients with active Crohn's disease", "experiment": "Open-labeled pilot trial of LDN: quality of life surveys (IBDQ, SF-36 Health Survey)", "format": "in vivo, human", "method": "(§1) Eligibility was assessed by telephone, and potential candidates were scheduled for a screening visit. At the screening visit, patients were subjected to a history and physical examination and laboratory testing (chemistry panel, complete blood count [“CBC”], urinalysis, and erythrocyte sedimentation rate [“ESR”]). Patients were dispensed a seven-day diary to record symptoms of frequency of diarrhea, abdominal pain, and general well-being. Within fourteen days, patients returned for assessment and calculation of the CDAI score. Qualifying subjects were dispensed medication and given a new diary in order to calculate the subsequent month's CDAI score at the conclusion of this visit (baseline). Patients returned after two weeks for an interim visit to evaluate side effects and perform a CBC. Follow-up visits were scheduled for weeks 4, 8, 12, and 16.\n(§2) Quality assurance of packaging and purity were confirmed an analytical research laboratory. Patients were treated with LDN orally each evening for three months. A monthly supply of medication was dispensed to patients. On the first visit, an additional ten-day supply of LDN was provided in the event of an appointment delay. Subjects were required to bring the vials to each appointment for counting and drug accountability; extra capsules were returned on the day of the visit and another month's supply dispensed.\nTo assess quality of life, patients completed two standardized quality of life surveys, the Inflammatory Bowel Disease Questionnaire (“IBDQ”) and SF-36 Health Survey. See, Irvine, et al., “Quality of life: a valid and reliable measure of therapeutic efficacy in the treatment of inflammatory bowel disease. Canadian Crohn's Relapse Prevention Trial Study Group,” Gastroenterology 106(2), 287-96 (1994); Brazier, et al., “Validating the SF-36 health survey questionnaire: new outcome measure for primary care,” BMJ305(6846), 160-04 (1992).\n(§3) An intent-to-treat analysis was performed in which the available data from all evaluable patients were included in the statistical analysis. The parameters of measurement (CDAI scores, laboratory values, and quality of life surveys) were analyzed by a biostatistician comparing baseline values to those obtained monthly and four weeks post-therapy. A longitudinal data analysis based upon the linear mixed-effects model was applied using PROC MIXED program (available from SAS Institute Inc., Cary, N.C.). The Bonferroni statistical method was used to adjust significance where analysis including multiple comparisons to the baseline were made. P-values for binary outcomes response and remission were calculated using the exact test for binomial proportions."}, "[2]": {"test_system": "patients with active Crohn's disease", "experiment": "Open-labeled pilot trial of LDN: safety and toxicity (adverse events, body weight)", "format": "in vivo, human", "method": "as §1\nNonhematologic and hematologic toxicity were determined by the WHO criteria. See, Oken, et al., “Toxicity and response criteria of the Eastern Cooperative Oncology Group,” Am. J. Clin. Oncol. 5(6), 649-55 (1982)."}, "[3]": {"test_system": "patients with active Crohn's disease", "experiment": "Open-labeled pilot trial of LDN in active Crohn's disease: CDAI score, response, remission, fistulas", "format": "in vivo, human", "source_text": "In the following detailed example, low dose naltrexone, an opioid antagonist, is shown to be a safe and effective treatment for Crohn's disease. In a human clinical experiment, eligible patients were both male and female, at least eighteen years of age, and with the confirmed diagnosis of Crohn's disease by either endocopic or radiographic procedures. Patients had moderate to severely active disease as defined by a Crohn's Disease Activity Index (CDAI score) of >220 and <450. See, Best, et al., “Development of a Crohn's disease activity index. National Cooperative Crohn's Disease Study,” Gastroenterology 70, 439-44 (1976). Patients taking stable doses of aminosalicylates, immunomodulators, corticosteroids, or antibiotics were permitted to enter the study, and they were continued at the same dosage throughout the trial. Women of childbearing age were permitted to enroll and, if not surgically sterile, were required to use adequate contraception (defined as oral or depot contraceptive, IUD, or barrier plus spermicide) for the duration of the study. These women were required to continue adequate contraception for three months after the completion of the study. Exclusion criteria included women who were pregnant or breastfeeding, subjects with an ileostomy, colostomy, ileorectal anastomosis, or short bowel syndrome from surgery, and patients with abnormal liver function tests. Subjects taking tacrolimus, cyclosporine, mycophenolate, or infliximab within eight weeks of enrollment were excluded.\nas §1\nas §2, with “dispensed. […]” for “dispensed.”\nas §3"}, "[4]": {"details": "one month (week 4) of LDN 4.5 mg/day"}, "[5]": {"details": "week 16, four weeks after discontinuation of LDN"}}, "note": "“Also recorded” adds a separate entry of the source. Counter-ions that a name gives are not always drawn."}
{"smiles": "O=C1CC[C@@]2(O)[C@H]3Cc4ccc(O)c5c4[C@@]2(CCN3CC2CC2)[C@H]1O5", "note": "[LDN, Naltrexone hydrochloride]", "values": [{"measurement": "Serious adverse events", "setting": "human subjects", "result": "has not revealed any serious adverse events"}, {"measurement": "SF-36 physical function, greater than baseline", "setting": "[1]; 4 and 8 weeks of LDN", "result": 23, "unit": "%"}, {"measurement": "Quality of life by both surveys (IBDQ and SF-36) compared to baseline", "setting": "[1]; on LDN therapy", "result": "significant improvement; also recorded: improved the quality of life"}, {"measurement": "SF-36 health perception, greater than baseline", "setting": "[1]; week 8 of LDN", "result": 33, "unit": "%"}, {"measurement": "SF-36 health perception, greater than baseline", "setting": "[1]; week 12 of LDN", "result": 49, "unit": "%"}, {"measurement": "SF-36 social function, greater than baseline", "setting": "[1]; weeks 4, 8 and 12, only statistically different at week 8", "result": 70, "unit": "%"}, {"measurement": "SF-36 bodily pain, improvement", "setting": "[1]; weeks 4, 8 and 12 of LDN", "result": "61-65%"}, {"measurement": "SF-36 emotional health versus baseline", "setting": "[1]; weeks 4, 8 and 12 of LDN", "result": "comparable to baseline values"}, {"measurement": "SF-36 physical role scores, improvement", "setting": "[1]; weeks 4, 8 and 12 of LDN", "result": "5- to 8 fold"}, {"measurement": "SF-36 role-emotional versus baseline", "setting": "[1]; weeks 4, 8 and 12 of LDN", "result": "comparable to baseline values"}, {"measurement": "IBDQ survey, quality of life compared to baseline", "setting": "[1]; weeks 4, 8 and 12 on LDN and one month after completion", "result": "significant improvement in quality of life"}, {"measurement": "SF-36 energy scores, greater than at initiation of therapy", "setting": "[1]; weeks 8 and 12 of LDN", "result": "at least 2 fold"}, {"measurement": "Sleep disturbances, number of patients", "setting": "[2]; 17 patients enrolled", "result": 7, "unit": "patients"}, {"measurement": "Subjects who changed timing of LDN from evening to morning due to insomnia", "setting": "[2]; 17 patients enrolled", "result": "Five"}, {"measurement": "Unusual dreams, number of patients reporting", "setting": "[2]; 17 patients enrolled", "result": "one"}, {"measurement": "Dose reduction for sleep disturbances", "setting": "[2]; in vivo", "result": "In no instance was a dose reduction necessary"}, {"measurement": "Safety profile", "setting": "[2]; pilot study, 4.5 mg daily", "result": "infrequent and minor side effects and no known suppression of immunity or increased risk of secondary infections"}, {"measurement": "Body weight", "setting": "[2]; screening visit through week 16", "result": "no significant change in body weight"}, {"measurement": "Fistulas in the two subjects with fistulas", "setting": "[3]; LDN therapy, not previously responded to infliximab, hydrochloride", "result": "closure of the fistulas"}, {"measurement": "Enrolled patients who achieved remission (fraction in words)", "setting": "[3]; at some point during LDN treatment", "result": "Two-thirds"}, {"measurement": "Patients who achieved a remission", "setting": "[3]; at some point during the 16-week trial", "result": 67, "unit": "%"}, {"measurement": "CDAI scores versus baseline (in words)", "setting": "[3]; four weeks after completing therapy, hydrochloride", "result": "remained lower than baseline; also recorded: continued improvement in CDAI scores"}, {"measurement": "CDAI scores with LDN versus baseline (in words)", "setting": "[3]; on therapy, 4.5 mg/day, baseline mean CDAI 356±27", "result": "decreased significantly"}, {"measurement": "Patients in remission (CDAI score of 150 points or less)", "setting": "[3]; [4]", "result": 29, "unit": "%"}, {"measurement": "Patients with response to therapy (decrease in CDAI score by 70 points)", "setting": "[3]; [4]", "result": 76, "unit": "%"}, {"measurement": "Mean CDAI score, decrease from baseline", "setting": "[3]; week 4 of LDN 4.5 mg/day by mouth each evening, 17 patients", "result": 41, "unit": "%"}, {"measurement": "Patients in remission (CDAI score of 150 points or less)", "setting": "[3]; week 8 of LDN", "result": 53, "unit": "%"}, {"measurement": "Patients with response to therapy (decrease in CDAI score by 70 points)", "setting": "[3]; week 8 of LDN", "result": 88, "unit": "%"}, {"measurement": "Mean CDAI score, decrease from baseline", "setting": "[3]; week 8 of LDN 4.5 mg/day", "result": 55, "unit": "%"}, {"measurement": "Patients in remission (CDAI score of 150 points or less)", "setting": "[3]; week 12 of LDN", "result": 47, "unit": "%"}, {"measurement": "Patients with response to therapy (decrease in CDAI score by 70 points)", "setting": "[3]; week 12 of LDN", "result": 88, "unit": "%"}, {"measurement": "Mean CDAI score, decrease from baseline", "setting": "[3]; week 12 of LDN 4.5 mg/day", "result": 49, "unit": "%"}, {"measurement": "Mean CDAI score, less than baseline", "setting": "[3]; [5]", "result": 45, "unit": "%"}, {"measurement": "Patients in remission (CDAI score of 150 points or less)", "setting": "[3]; [5]", "result": 33, "unit": "%"}, {"measurement": "Patients with response to therapy (decrease in CDAI score by 70 points)", "setting": "[3]; [5]", "result": 73, "unit": "%"}]}
